Where two headings read alike, the source gives them in different places.
Assays:
Format in all cases: biochemical
DYRK1A = biological target: T1, DYRK1A (Homo sapiens, UniProt Q13627); assay: Inhibition test on activity of DYRK family, mobility shift assay (MSA): DYRK1A
T1 construct: purchased Carna Biosciences, Inc. 04-130
Procedure, shortened: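 Mobility shift assay with recombinant DYRK1A (0.2 ng/μL enzyme solution), FITC-DYRKtide substrate (4 μM in substrate mix), 100 μM ATP in substrate mix, HEPES pH 7.5 buffer with MgCl2; 1 h at room temperature. Phosphorylated vs unphosphorylated peptide peaks quantified; IC50 from regression of inhibition rate against log concentration.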

DYRK1B = biological target: T2, DYRK1B (Homo sapiens, UniProt Q9Y463); assay: Inhibition test on activity of DYRK family, mobility shift assay (MSA): DYRK1B
T2 construct: purchased Carna Biosciences, Inc. 04-131
T2 sequence (Q9Y463 whole entry): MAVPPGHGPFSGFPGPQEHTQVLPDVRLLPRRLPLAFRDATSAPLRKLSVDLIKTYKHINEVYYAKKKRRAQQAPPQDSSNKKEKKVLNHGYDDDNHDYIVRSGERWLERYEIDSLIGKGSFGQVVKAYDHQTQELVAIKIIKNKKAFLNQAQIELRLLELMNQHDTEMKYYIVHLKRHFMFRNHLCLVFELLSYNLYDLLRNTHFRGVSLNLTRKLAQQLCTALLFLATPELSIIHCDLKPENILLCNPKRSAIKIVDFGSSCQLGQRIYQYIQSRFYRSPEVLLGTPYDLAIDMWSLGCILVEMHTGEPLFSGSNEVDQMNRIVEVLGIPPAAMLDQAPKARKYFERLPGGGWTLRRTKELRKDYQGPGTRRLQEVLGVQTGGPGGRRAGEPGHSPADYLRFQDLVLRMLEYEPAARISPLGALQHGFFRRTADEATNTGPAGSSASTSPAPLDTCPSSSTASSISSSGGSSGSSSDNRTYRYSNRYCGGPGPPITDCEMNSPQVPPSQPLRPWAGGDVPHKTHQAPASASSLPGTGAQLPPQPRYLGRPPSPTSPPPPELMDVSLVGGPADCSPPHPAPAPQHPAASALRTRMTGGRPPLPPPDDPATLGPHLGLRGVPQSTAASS
Protocol: [Inhibition Test on Activity of DYRK Family (DYRK1A, DYRK1B, DYRK2, and DYRK3)]
The kinase activity was measured by mobility shift assay (MSA) method using QuickScout Screening Assist™ MSA (commercially available kit manufactured by Carna Biosciences, Inc.). The substrate of the kinase reaction used was an FITC-labeled DYRKtide peptide included in the kit. An assay buffer [20 mM HEPES, 0.01% Triton X-100™, 2 mM dithiothreitol, pH 7.5]was used to create a substrate mixture solution with a substrate (4 μM), MgCl2(20 mM), and ATP (DYRK1A: 100 μM; DYRK1B: 200 μM; DYRK2: 40 μM; and DYRK3: 20 μM). In addition, kinases (DYRK1A: manufactured by Carna Biosciences, Inc., Cat. No. 04-130; DYRK1B: manufactured by Carna Biosciences, Inc., Cat. No. 04-131; DYRK2; manufactured by Carna Biosciences, Inc., Cat. No. 04-132; and DYRK3; manufactured by Carna Biosciences, Inc., Cat. No. 04-133) were diluted with the assay buffer to prepare enzyme solutions (DYRK1A: 0.2 ng/μL; DYRK1B: 0.08 ng/μL; DYRK2: 0.04 ng/μL; and DYRK3: 0.25 ng/μL). The 10 mM solution of the test compound in DMSO was further diluted with DMSO to 10 levels of the concentration (0.00003 mM, 0.0001 mM, 0.0003 mM, 0.001 mM, 0.003 mM, 0.01 mM, 0.03 mM, 0.1 mM, 0.3 mM, and 1 mM), each of which was subjected to 25-fold dilution with the assay buffer to obtain a drug solution (4% DMSO solution). 5 μL of the drug solution or a control solution (4% DMSO-assay buffer), 5 μL of the substrate mixture solution, and 10 μL of the enzyme solution were mixed in the wells of a polypropylene 384-well plate and allowed to react at room temperature for 1 hour, and then the reaction was quenched by adding 60 μL of the termination buffer included in the kit. Subsequently, the quantities of the substrates (S) and the phosphorylated substrate (P) in the reaction solution were measured using LabChip EZ Reader II system (manufactured by Caliper Life Sciences) according to the protocol of the assay kit.
The heights of the peaks of the “substrate” and the “phosphorylated substrate” were expressed as S and P, respectively, and a blank containing the assay buffer instead of the enzyme solution was also measured.
The inhibition rate (%) of the test compound was calculated according to the following equation:
Inhibition rate (%)=(1−(C−A)/(B−A))×100 • wherein, A, B, and C represent P/(P+S) of the blank well, P/(P+S) of the control solution well, and P/(P+S) of the compound-containing well, respectively.
The IC50 value was calculated via a regression analysis of the inhibition rate and the test compound concentration (logarithmic value).
The inhibiting activities of representative compounds of the present invention are shown against DYRK1A, DYRK1B, DYRK2, and DYRK3 in Tables.

DYRK2 = biological target: T3, DYRK2 (Homo sapiens, UniProt Q92630); assay: Inhibition test on activity of DYRK family, mobility shift assay (MSA): DYRK2
T3 construct: purchased Carna Biosciences, Inc. 04-132
T3 sequence (Q92630 74-601 limits assumed): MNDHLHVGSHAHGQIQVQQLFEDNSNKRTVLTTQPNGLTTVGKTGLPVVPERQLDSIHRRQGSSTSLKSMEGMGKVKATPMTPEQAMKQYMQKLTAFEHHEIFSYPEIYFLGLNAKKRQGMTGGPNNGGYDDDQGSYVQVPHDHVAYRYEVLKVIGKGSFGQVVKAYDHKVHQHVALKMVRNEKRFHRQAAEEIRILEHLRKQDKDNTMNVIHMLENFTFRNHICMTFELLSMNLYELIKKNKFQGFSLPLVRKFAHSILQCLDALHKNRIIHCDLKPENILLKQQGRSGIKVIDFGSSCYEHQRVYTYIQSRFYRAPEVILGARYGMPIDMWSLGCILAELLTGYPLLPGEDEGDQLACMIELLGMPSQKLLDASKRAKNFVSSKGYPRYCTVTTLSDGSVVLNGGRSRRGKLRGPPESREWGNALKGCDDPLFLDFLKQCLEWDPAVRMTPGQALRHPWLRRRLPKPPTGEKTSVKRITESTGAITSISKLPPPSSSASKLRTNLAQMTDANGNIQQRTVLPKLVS
Procedure, shortened: (§1)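 Mobility-shift readout of FITC-DYRKtide phosphorylation in 20 mM HEPES pH 7.5. The substrate mix held 4 µM peptide, 20 mM MgCl2 and ATP at 100 (1A), 200 (1B), 40 (2) or 20 µM (3). Reaction 1 h at room temperature; IC50 from regression of P/(P+S)-based inhibition vs log concentration.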

DYRK3 = biological target: T4, DYRK3 (Homo sapiens, UniProt O43781); assay: Inhibition test on activity of DYRK family, mobility shift assay (MSA): DYRK3
T4 construct: purchased Carna Biosciences, Inc. 04-133
T4 sequence (O43781 1-568 isoform O43781-2): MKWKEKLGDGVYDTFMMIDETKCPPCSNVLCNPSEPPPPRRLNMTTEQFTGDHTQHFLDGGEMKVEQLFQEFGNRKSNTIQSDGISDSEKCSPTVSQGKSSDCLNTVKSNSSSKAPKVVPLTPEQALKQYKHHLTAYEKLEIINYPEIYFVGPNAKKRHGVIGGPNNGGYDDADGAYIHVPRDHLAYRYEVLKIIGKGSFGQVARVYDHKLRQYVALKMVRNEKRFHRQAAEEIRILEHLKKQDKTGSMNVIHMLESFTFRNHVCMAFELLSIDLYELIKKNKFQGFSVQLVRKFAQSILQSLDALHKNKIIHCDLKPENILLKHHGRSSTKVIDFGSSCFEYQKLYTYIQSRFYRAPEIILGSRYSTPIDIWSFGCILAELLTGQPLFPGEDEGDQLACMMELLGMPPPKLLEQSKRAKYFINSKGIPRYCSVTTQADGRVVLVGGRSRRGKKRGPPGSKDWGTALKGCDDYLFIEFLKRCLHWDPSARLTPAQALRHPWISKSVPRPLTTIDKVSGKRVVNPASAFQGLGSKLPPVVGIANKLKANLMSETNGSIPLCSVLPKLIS
Procedure, shortened: as §1

[1] = MSA, FITC-labeled DYRKtide peptide, ATP 100 μM, read-out: Inhibitory activity DYRK 1A (IC50 class)
[2] = MSA, FITC-labeled DYRKtide peptide, ATP 200 μM, read-out: Inhibitory activity DYRK 1B (IC50 class)
[3] = MSA, FITC-labeled DYRKtide peptide, ATP 40 μM, read-out: Inhibitory activity DYRK 2 (IC50 class)
[4] = MSA, FITC-labeled DYRKtide peptide, ATP 20 μM, read-out: Inhibitory activity DYRK 3 (IC50 class)

| Compound | IC50 (DYRK1A; [1]) | IC50 (DYRK1B; [2]) | IC50 (DYRK2; [3]) | IC50 (DYRK3; [4]) | IC50 (DYRK1A; read-out: Inhibitory activity DYRK 1A) | IC50 (DYRK1B; read-out: Inhibitory activity DYRK 1B) | IC50 (DYRK2; read-out: Inhibitory activity DYRK 2) | IC50 (DYRK3; read-out: Inhibitory activity DYRK 3) |
| --- | --- | --- | --- | --- | --- | --- | --- | --- |
| O=C1N[C@H]2CO[C@H](CF)[C@H]2N1c1nc2c3c(ccc2s1)OCC3 [Example 159, (3aR,6S,6aS)-1-(7,8-dihydrofuro[3,2-e][1,3]benzothiazol-2-yl)-6-(fluoromethyl)tetrahydro-1H-furo[3,4-d]imidazol-2(3H)-one] | < 10 nM | 10 to 100 nM | 10 to 100 nM | 10 to 100 nM |  |  |  |  |
| O=C1N[C@@H]2[C@@H](CO)OC[C@@H]2N1c1nc2c3c(ccc2s1)OCC3 [Example 158] | 100 to 1000 nM | 100 to 1000 nM | ≥ 1000 nM | ≥ 1000 nM |  |  |  |  |
| CC[C@H]1C[C@@H]2[C@H](CO1)NC(=O)N2c1nc2c3c(ccc2s1)OCCO3 [Example 43, (3aR,6S,7aR)-1-(7,8-dihydro[1,4]dioxino[2,3-e][1,3]benzothiazol-2-yl)-6-ethylhexahydropyrano[3,4-d]imidazol-2(3H)-one] | < 10 nM | < 10 nM | 100 to 1000 nM | 100 to 1000 nM |  |  |  |  |
| CC[C@H]1C[C@@H]2[C@H](CO1)NC(=O)N2c1nc2c3c(ccc2s1)OCO3 [Example 138, (3aR,6S,7aR)-1-(2H-[1,3]dioxolo[4,5-e][1,3]benzothiazol-7-yl)-6-ethylhexahydropyrano[3,4-d]imidazol-2(3H)-one] | < 10 nM | < 10 nM | 100 to 1000 nM | 100 to 1000 nM |  |  |  |  |
| O=C1N[C@H]2COC[C@H]2N1c1nc2c3c(ccc2s1)OCC3 [Example 119] |  |  |  |  | 10 to 100 nM | 10 to 100 nM | 10 to 100 nM | 10 to 100 nM |
| C[C@H]1C[C@@H]2[C@H](CO1)NC(=O)N2c1nc2c3c(ccc2s1)OCCO3 [Example 39, (3aR,6S,7aR)-1-(7,8-dihydro[1,4]dioxino[2,3-e][1,3]benzothiazol-2-yl)-6-methylhexahydropyrano[3,4-d]imidazol-2(3H)-one] | < 10 nM | < 10 nM | 100 to 1000 nM | 100 to 1000 nM |  |  |  |  |
| O=C1N[C@H]2CO[C@@H](CF)C[C@H]2N1c1nc2c3c(ccc2s1)OCC3 [Example 40, (3aR,6R,7aR)-1-(7,8-dihydrofuro[3,2-e][1,3]benzothiazol-2-yl)-6-(fluoromethyl)hexahydropyrano[3,4-d]imidazol-2(3H)-one] | < 10 nM | < 10 nM | 100 to 1000 nM | 10 to 100 nM |  |  |  |  |
| O=C1N[C@H]2CCN(C3CC3)C[C@H]2N1c1nc2c3c(ccc2s1)OCO3 (single isomer, unassigned) [Example 36] | < 10 nM | < 10 nM | ≥ 1000 nM | ≥ 1000 nM |  |  |  |  |
| O=C1N[C@H]2CO[C@@H](CF)C[C@H]2N1c1nc2c3c(ccc2s1)OCCO3 [Example 41, (3aR,6R,7aR)-1-(7,8-dihydro[1,4]dioxino[2,3-e][1,3]benzothiazol-2-yl)-6-(fluoromethyl)hexahydropyrano[3,4-d]imidazol-2(3H)-one] | < 10 nM | < 10 nM | 100 to 1000 nM | 10 to 100 nM |  |  |  |  |
| CN1CC[C@@H]2NC(=O)N(c3nc4c5c(ccc4s3)OCC5)[C@@H]2C1 (relative stereo) [Example 7, cis-3-(7,8-Dihydrofuro[3,2-e][1,3]benzothiazol-2-yl)-5-methyloctahydro-2H-imidazo[4,5-c]pyridin-2-one] | 10 to 100 nM | 10 to 100 nM | ≥ 1000 nM | ≥ 1000 nM |  |  |  |  |
| O=C1N[C@H]2CCN(C3CC3)C[C@H]2N1c1nc2c3c(ccc2s1)OCCO3 (single isomer, unassigned) [Example 34] | < 10 nM | 10 to 100 nM | ≥ 1000 nM | ≥ 1000 nM |  |  |  |  |

Reference: patent publication US20230365589A1, “NOVEL AMINE DERIVATIVES” (Sumitomo Pharma Co., Ltd., priority 2020, published 2023)
